Experimental data from US5098900A, “3(2H)pyridazinone, process for its preparation and anti-allergic agent containing it” (Nissan Chemical Industries Ltd., priority 1984, dated 1992).

Each compound was assayed on LTD4 (assay: LTD4 antagonism in isolated guinea-pig trachea (LTD4-induced contraction)). Conditions: Cavia porcellus, 5 min, test compound 10^-5 g/ml, LTD4 2×10^-8 g/ml.
Format: cell-based
Procedure: (ii) LTC4 and LTD4 antagonisms in guinea-pig trachea
Antagonism for LTC4 and LTD4 were determined in isolated guinea-pig trachea prepared as spiral strip. 10 Tracheal preparations were suspended under 1 g tension in […] and they were incubated for 1 hr prior to use. Contractile responses to LTC4 (2×10^-8 g/ml) and LTD4 (2×10^-8 g/ml) were obtained after the maximal response to histamine (10^-4 M). Test compounds dissolved in 100% dimethyl sulfoxide were added to the organ baths (final concentration of 10^-5 g/ml) 5 min prior to LTC4 and LTD4 addition, and then contractile responses to LTC4 and LTD4 were compared with those of control which was obtained from a paired trachea in the absence of test compounds. LTC4 - and LTD4 -induced contractions were expressed as a percentage of the maximal response to histamine. The antagonism was determined as follows: Antagonism (%)=(1.0-% contraction in test/% contraction in control)×100

SMILES	inhibition at 10 µg/mL
CCOCCCNC(=O)c1ccc(CNc2cnn(C(C)(C)C)c(=O)c2Cl)cc1 [compound 57]	27%
CCOCCNC(=O)c1ccc(CNc2cnn(C(C)(C)C)c(=O)c2Cl)cc1 [compound 56]	19%
COc1ccc(CNc2cnn(C(C)C)c(=O)c2Br)c(OC)c1 [compound 169]	100%
CCOc1cccc(CNc2cnn(CC)c(=O)c2Cl)c1OC [compound 110]	69%
COc1cccc(CNc2cnn(C(C)(C)C)c(=O)c2Cl)c1 [Compound No. 8]	53%
CCOc1cc(CNc2cnn(CC)c(=O)c2Cl)ccc1O [compound 136]	64%
CCOc1cccc(CNc2cnn(C(C)C)c(=O)c2Br)c1 [compound 165]	71%
CC(C)n1ncc(NCc2ccc(Cl)cc2)c(Cl)c1=O [compound 123]	88%
CCn1ncc(NCc2cc(OC)c(OC)c(OC)c2)c(Cl)c1=O [compound 121]	31%
CCCOc1cc(CNc2cnn(C(C)C)c(=O)c2Cl)ccc1O [compound 133]	66%
CCCOc1cc(CNc2cnn(CC)c(=O)c2Cl)ccc1O [compound 134]	75%
CCc1cc(CNc2cnn(C(C)C)c(=O)c2Cl)ccc1OC [compound 84]	96%
CCCOc1ccc(CNc2cnn(CC)c(=O)c2Cl)cc1OC [compound 108]	53%
CCc1ccc(CNc2cnn(CC)c(=O)c2Cl)cc1 [compound 81]	68%
CCOc1cccc(CNc2cnn(C(C)C)c(=O)c2C)c1 [compound 152]	75%
COc1ccc(CNc2cnn(C(C)C)c(=O)c2Cl)cc1O [compound 138]	86%
CCc1cc(CNc2cnn(CC)c(=O)c2Cl)ccc1OCc1ccccc1 [compound 83]	74%
CC(C)n1ncc(NCc2cccc(OCCCCCO)c2)c(Cl)c1=O [Compound No. 147, 4-Chloro-5-[3-(5-hydroxy)pentoxybenzylamino]-2-i-propyl-3(2H)pyridazinone]	73%
CCOc1cccc(CNc2cnn(CC)c(=O)c2Cl)c1O [compound 129]	48%
CCn1ncc(NCc2ccc(N(C)C)cc2)c(Cl)c1=O [compound 46]	49%
COc1ccc(CNc2cnn(C(C)C)c(=O)c2C)cc1 [Compound No. 151, 4-Methyl-5-(4-methoxybenzylamino)-2-i-propyl-3(2H)-pyridazinone]	78%
COc1ccc(OC)c(CNc2cnn(C(C)C)c(=O)c2Cl)c1 [compound 104]	68%

SMILES	inhibition at 10 µg/mL
CCCCCOc1cc(CNc2cnn(CC)c(=O)c2Cl)ccc1OC [compound 19]	66%
CC(C)n1ncc(NCc2cccc(OCc3ccccc3)c2)c(Cl)c1=O [Compound No. 95, 4-Chloro-5-(3-benzyloxybenzylamino)-2-i-propyl-3-(2H)pyridazinone]	62%
COc1ccc(CNc2cnn(C(C)C)c(=O)c2Br)cc1 [compound 162]	100%
CCn1ncc(NCc2ccc(OC)cc2OC)c(Br)c1=O [compound 159]	98%
COc1cccc(CNc2cnn(C(C)C)c(=O)c2Br)c1 [compound 163]	95%
CCc1c(NCc2ccc(C)cc2)cnn(C(C)(C)C)c1=O [Compound No. 36, 4-Ethyl-5-(4-methylbenzylamino)-2-t-butyl-3(2H)pyridazinone]	19%
CCOc1cc(CNc2cnn(CC)c(=O)c2Br)ccc1OC [compound 160]	98%
CCc1cc(CNc2cnn(C(C)C)c(=O)c2Cl)ccc1OCc1ccccc1 [compound 82]	46%
COC(=O)CCCCOc1cccc(CNc2cnn(C(C)C)c(=O)c2Cl)c1 [Compound No. 144]	44%
CC(C)n1ncc(NCc2ccc(OCc3ccccc3)cc2)c(Cl)c1=O [compound 96]	59%
CCCN(CCC)C(=O)c1ccc(CNc2cnn(C(C)C)c(=O)c2Cl)cc1 [Compound No. 125, 4-Chloro-5-(4-di-n-propylaminocarbonylbenzylamino)-2-i-propyl-3(2H)pyridazinone]	53%
CCCN(CCC)C(=O)c1ccc(CNc2cnn(C(C)(C)C)c(=O)c2Cl)cc1 [compound 39]	67%
CCn1ncc(NCc2ccc(C)cc2C)c(Br)c1=O [compound 158]	99%
CC(C)n1ncc(NCc2ccc(C=O)cc2)c(Cl)c1=O [Compound No. 140, 4-Chloro-5-(4-formylbenzylamino)-2-i-proyl-3(2H)pyridazinone]	77%
CC(C)n1ncc(NCc2cccc(OCCCCC(=O)O)c2)c(Cl)c1=O [Compound No. 142, 4-Chloro-5-[3-(4-carboxy)butoxybenzylamino]-2-i-propyl-3(2H)pyridazinone]	41%
CCCCCOc1cc(CNc2cnn(C(C)(C)C)c(=O)c2Cl)ccc1OC [compound 20]	17%
CCCOc1cc(CNc2cnn(CC)c(=O)c2Cl)ccc1OCc1ccccc1 [compound 118]	61%
CCOc1cc(CNc2cnn(C(C)C)c(=O)c2Br)ccc1OC [compound 166]	100%
CC(C)n1ncc(NCc2cccc(O)c2)c(Cl)c1=O [Compound No. 137, 4-Chloro-5-(3-hydroxybenzylamino)-2-i-propyl-3-(2H)pyridazinone]	96%
CCCOc1cc(CNc2cnn(CC)c(=O)c2Br)ccc1OC [compound 161]	95%
CCOc1ccc(CNc2cnn(C(C)C)c(=O)c2Br)cc1 [Compound No. 164, 4-Bromo-5-(4-ethoxybenzylamino)-2-i-propyl-3(2H)pyridazinone]	82%
CCCOc1cc(CNc2cnn(C(C)C)c(=O)c2C)ccc1OC [compound 153]	45%

SMILES	inhibition at 10 µg/mL
CCOc1cccc(CNc2cnn(C(C)C)c(=O)c2Cl)c1O [compound 127]	76%
CCc1cc(CNc2cnn(CC)c(=O)c2Cl)ccc1OC [compound 85]	91%
CCOc1cccc(CNc2cnn(C(C)C)c(=O)c2Cl)c1OCc1ccccc1 [compound 114]	77%
CCOc1ccccc1CNc1cnn(C(C)C)c(=O)c1Cl [compound 92]	92%
CCCOc1cc(CNc2cnn(C(C)C)c(=O)c2Cl)ccc1OCc1ccccc1 [compound 117]	25%
CC(C)n1ncc(NCc2ccc(O)cc2)c(Cl)c1=O [compound 130]	100%
CCCOc1cccc(CNc2cnn(CC)c(=O)c2Br)c1 [compound 157]	88%
CCOc1ccc(CNc2cnn(CC)c(=O)c2Br)cc1 [compound 155]	60%
CC(C)n1ncc(NCc2cccc(OCCCCC(=O)OC(C)(C)C)c2)c(Cl)c1=O [Compound No. 139, 4-Chloro-5-[3-(4-t-butoxycarbonyl)butoxybenzylamino]-2-i-propyl-3(2H)pyridazinone]	57%
COc1cc(CNc2cnn(C(C)C)c(=O)c2Cl)cc(OC)c1 [compound 98]	55%
CNC(=O)CCCCOc1cccc(CNc2cnn(C(C)C)c(=O)c2Cl)c1 [Compound No. 146, 4-Chloro-5-[3-(4-N-methylaminocarbonyl)butoxybenzylamino]-2-i-propyl-3(2H)pyridazinone]	32%
CC(C)(C)n1ncc(NCc2ccc(/C=C/C(=O)NCCC(=O)O)cc2)c(Cl)c1=O [Compound No. 61, 4-Chloro-5-[4-(β-carboxyethylaminocarbonyl-2-transethenyl)benzylamino]-2-t-butyl-3(2H)pyridazinone]	21%
CCn1ncc(NCc2ccc(SC)cc2)c(Cl)c1=O [compound 124]	71%
CCOC(=O)CCNC(=O)/C=C/c1ccc(CNc2cnn(C(C)(C)C)c(=O)c2Cl)cc1 [Compound No. 60]	15%
COc1cc(CNc2cnn(C(C)(C)C)c(=O)c2Cl)cc(OC)c1OC [compound 120]	26%
CN(C)CCNC(=O)c1ccc(CNc2cnn(C(C)(C)C)c(=O)c2Cl)cc1 [compound 58]	23%
CCCn1ncc(NCc2ccc(N(C)C)cc2)c(Cl)c1=O [compound 126]	63%
CCOc1cc(CNc2cnn(C(C)C)c(=O)c2Cl)ccc1OCc1ccccc1 [compound 113]	40%
COCCCCCOc1cccc(CN(C)c2cnn(C(C)C)c(=O)c2Cl)c1 [Compound No. 149, 4-Chloro-5-[3-(5-methoxy)pentoxy-N-methylbenzylamino]-2-i-propyl-3(2H)pyridazinone]	68%
C=CCNC(=O)c1ccc(CNc2cnn(C(C)(C)C)c(=O)c2Cl)cc1 [Compound No. 54, 4-Chloro-5-(4-allylaminocarbonylbenzylamino)-2-t-butyl-3(2H)pyridazinone]	10%
CN(C)c1ccc(CNc2cnn(C(C)(C)C)c(=O)c2Br)cc1 [compound 28]	52%
CCCOc1cc(CNc2cnn(C(C)C)c(=O)c2Br)ccc1OC [compound 167]	96%

Same assay, conditions: test compound 10^-5 g/ml, LTD4 2×10^-8 g/ml, 5 min

SMILES	LTD4 antagonism
CC(C)n1ncc(NCc2ccc(N(C)C)cc2)c(Cl)c1=O [compound 26]	38%
CN(C)CCNC(=O)c1ccc(CNc2cnn(C(C)(C)C)c(=O)c2Cl)cc1 [compound 50]	12%
CN(C)c1ccc(CNc2cnn(C(C)(C)C)c(=O)c2Br)cc1 [compound 47]	65%
